Molecules are shown by their SMILES. Several values for one entry are separate records, joined by “and”; a condition that tells them apart may be missing. Identical values can stand only once.

Here are results for three compounds from patent US20170354147A1, “SAFENING AMINOPYRALID COMPOSITIONS IN BRASSICA SPECIES WITH CLOPYRALID AND METHODS OF USE THEREOF” (Dow AgroSciences LLC, priority 2016, published 2017).

What all share (type): in vivo
In data set [1] the test system is Aparima Gold swede (Brassica sp., BRSSS). Put plainly: Pot trials, postemergence crop safety (visual injury) to Aparima Gold swede. The source says: (§1) The following equation was used to calculate the expected activity of mixtures containing two active ingredients, A and B:
(§2) Expected=A+B−(A×B/100) • A=observed efficacy of active ingredient A at the same concentration as used in the mixture; • B=observed efficacy of active ingredient B at the same concentration as used in the mixture.
(§3) BRSOM=Brassica oleracea var. acephala subvar. Medullosa (stem kale) BRSSS=Brassica sp. (Aparima Gold swede) BRSNS-RR=Brassica napus (spring rape or Spring Argentine rape, Roundup® Ready) g ae/ha=grams acid equivalent per hectare Mean % visual injury=observed value of percent (%) injury rated visually Observed Mean % visual injury=observed value of percent (%) injury rated visually Colby predicted mean % visual injury=expected value of percent (%) injury as calculated by Colby's equation Mean % visual leafroll=observed value of percent (%) leafroll rated visually Observed Mean % visual leafroll=observed value of percent (%) leafroll rated visually Colby predicted mean % visual leafroll=expected value of percent (%) leafroll as calculated by Colby's equation Mean % visual growth inhibition=observed value of percent (%) growth inhibition rated visually Observed Mean % visual growth inhibition=observed value of percent (%) growth inhibition rated visually Colby predicted mean % visual growth inhibition=expected value of percent (%) growth inhibition as calculated by Colby's equation
(§4) Two pot trials were established at Dow AgroSciences Waireka Field Research Station, New Zealand to evaluate crop safety of herbicide treatments to two species of leafy and bulb forage brassica crops (stem kale (Brassica oleracea var. acephala subvar. medullosa, BRSOM) and Aparima Gold swede (Brassica sp., BRSSS)). Trials were designed as randomized complete blocks with five replicates. Trials were established as weed-free tolerance trials. Pot size was 10 by 10 centimeters (cm, width×length). The forage brassica crops were grown using normal cultural practices for fertilization, seeding, watering and maintenance to ensure good growth of the crops.
(§5) All herbicide treatments were applied post-emergence with applications made to the crops at the 2 to 5-leaf stage. Herbicides were applied with a belt spray chamber system with compressed air as a propellant. The sprayer utilized a flat fan spray nozzle calibrated to deliver a uniform spray pattern that provided thorough coverage of the foliage using a 200 liters per hectare (L/ha) spray volume. All treatments were applied with Uptake adjuvant (paraffinic oil/Non-Ionic Surfactant blend) at 0.5% volume per volume (v/v). Phytotoxicity to the crops was assessed visually at several intervals after application as percent overall injury, compared to an untreated control plot. The overall injury assessments were based on visual ratings of growth inhibition, leaf deformity, epinasty, and chlorosis.
(§6) Aminopyralid-triisopropanolammonium (TIPA) was applied as Tordon™ Max Herbicide (30 grams acid equivalent per liter (g ae/L) soluble (liquid) concentrate (SL)), and clopyralid-TIPA was applied as Versatill™ (300 g ae/L SL), The compositions tested, application rates employed, plant species tested, and results are given in Table 1 through Table 3.

For data set [2] the test system is unchanged. The data set can be described thus: Field trials Canterbury, New Zealand, postemergence crop safety (visual injury, growth inhibition) to Aparima Gold swede.
Text: as §1, §2, §3
Two field trials were established in Canterbury, New Zealand to evaluate crop safety of herbicide treatments to leafy forage brassica crops (Aparima Gold swede (Brassica sp., BRSSS)). Trials were designed as randomized complete blocks with four replicates. All trials were established as weed-free tolerance trials with plot size of 3 meters (m) by 8 m (width×length). The crops were grown using normal cultural practices for fertilization, seeding, and maintenance to ensure good growth of the crop.
All herbicide treatments were applied post-emergence with applications made to the crops at the 3 to 5-leaf stage. Herbicides were applied with backpack sprayers using carbon dioxide (CO2) as a propellant. […] All treatments were applied with Uptake adjuvant (paraffinic oil/Non-Ionic Surfactant blend) at 1% v/v. Phytotoxicity to the crops was assessed visually at several intervals after application as percent overall injury, compared to an untreated control plot. The overall injury assessments were based on visual ratings of growth inhibition, leaf deformity, epinasty, and chlorosis.
Aminopyralid-TIPA was applied as Tordon™ Max Herbicide (30 g ae/L SL), and clopyralid-TIPA was applied as Versatill™ (300 g ae/L SL),

For data set [3], the system named is stem kale (Brassica oleracea var. acephala subvar. medullosa, BRSOM). The data set can be described thus: Pot trials, postemergence crop safety (visual injury, leafroll) to stem kale.
Text: as §1, §2, §3, §4, §5, §6

In data set [4] the test system is Spring Argentine canola (Brassica napus, BRSNS), Nex 1012 glyphosate-tolerant, BRSNS-RR. Put plainly: Field trials Canada, postemergence crop safety (visual injury) to glyphosate-tolerant Spring Argentine canola.
Text: as §3
Field trials were established in Canada (in Manitoba, Alberta, and Saskatchewan) to evaluate crop safety of herbicide treatments to Spring Argentine canola (Brassica napus, BRSNS). Trials were designed as randomized complete blocks with four replicates. Trials were established as weed-free crop tolerance trials with plot sizes of 2-3 meters (m) by 8-25 m (width×length). The crops were grown using normal cultural practices for fertilization, seeding, and maintenance to ensure good growth of the crop.
The overall injury assessments were based on visual ratings of growth inhibition, leaf deformity, epinasty, chlorosis and delay in maturity. Assessments were made at 8-10 days after treatment (DAT) for an initial rating, 14-17 DAT for an early-season rating, 28-32 DAT for a mid-season rating, and 42-55 DAT for a late-season rating.
Aminopyralid-triisopropanolammonium (TIPA) was applied as Milestone® (240 g ae/L SL); clopyralid-olamine was applied as Lontrel™ 360 (360 g ae/L SL); and glyphosate-dimethylammonium was applied as Vantage™ XRT (480 g ae/L SL).

The mark [5] stands for this setting: 10 g ae/ha, with Glyphosate-DMA 450 g ae/ha.
Where [6] appears, read: 20 g ae/ha, with Glyphosate-DMA 450 g ae/ha.
Setting [7] is: Glyphosate-DMA 450 g ae/ha alone (Aminopyralid-TIPA 0 g ae/ha).

As to `O=C(O)c1nc(Cl)ccc1Cl` [Clopyralid TIPA, (2RS,2′RS,2″RS)-tris(2-hydroxypropyl)ammonium 3,6-dichloropyridine-2-carboxylate], the “Mean % Visual Injury” value in data set [1] (3DAA1, 90 g ae/ha) is 2.2%; in data set [1] (7DAA1, 90 g ae/ha) it was 0.4%; in data set [1] (15DAA1, 90 g ae/ha), 0.0%; in data set [1] (28DAA1, 90 g ae/ha), 0.0%; in data set [2] (13DAA1, 45 g ae/ha), 0.8%; in data set [2] (13DAA1, 180 g ae/ha), 2.3%. In addition, the “Mean % Visual Injury” value in data set [2] (22DAA1, 45 g ae/ha) is 0.0%; in data set [2] (28DAA1, 180 g ae/ha), 3.0%; in data set [3] (7DAA1, 45.0 g ae/ha) it was 0.0% and 0.7%; in data set [3] (7DAA1, 90.0 g ae/ha), 0.0% and 0.7%; in data set [3] (7DAA1, 180.0 g ae/ha), 0.0% and 0.7%; in data set [3] (7DAA1, 360.0 g ae/ha), 0.0% and 0.7%. Besides, the “Mean % Visual Injury” value in data set [3] (15DAA1, 22.5 g ae/ha) is reported as 0.0%; in data set [3] (15DAA1, 45 g ae/ha), 0%; in data set [3] (15DAA1, 90 g ae/ha) it was 0%; in data set [3] (15DAA1, 180.0 g ae/ha) it was 0.0%; in data set [3] (15DAA1, 360.0 g ae/ha), 0.0%; in data set [3] (28DAA1, 90.0 g ae/ha), 0.0%. The “Mean % Visual Injury” value in data set [3] (28DAA1, 360 g ae/ha) was found to be 0%. Moreover, the “Mean % Growth Inhibition” value was 2.8% in data set [2] (13DAA1, 45 g ae/ha); 8.8% in data set [2] (13DAA1, 90 g ae/ha); 7.5% in data set [2] (13DAA1, 180 g ae/ha); 3.8% in data set [2] (28DAA1, 180 g ae/ha); 6.0% in data set [2] (56DAA1, 45 g ae/ha). Besides, the “Mean % Visual Leafroll” value turned out to be 0.0% in data set [3] (1DAA1, 90 g ae/ha); 0.0% in data set [3] (1DAA1, 180 g ae/ha); 0.0% in data set [3] (1DAA1, 360 g ae/ha); 0.0% in data set [3] (4DAA1, 90 g ae/ha); 0.0% in data set [3] (4DAA1, 180 g ae/ha); 0.0% in data set [3] (15DAA1, 90 g ae/ha). In addition, the “Mean % Visual Leafroll” value in data set [3] (15DAA1, 180 g ae/ha) stood at 0.0%; in data set [3] (15DAA1, 360 g ae/ha), 0.0%; in data set [3] (28DAA1, 360 g ae/ha), 0.0%.

As for `Nc1cc(Cl)nc(C(=O)O)c1Cl` [Aminopyralid TIPA, tris (2-hydroxypropyl)ammonium 4-amino-3,6-dichloropyridine-2-carboxylate], the “Mean % Visual Injury” value in data set [1] (3DAA1, 60 g ae/ha) was 6.8%; in data set [1] (7DAA1, 60 g ae/ha) it was 9.6%; in data set [1] (15DAA1, 60 g ae/ha), 15.4%; in data set [1] (28DAA1, 60 g ae/ha) it was 15.6%; in data set [2] (13DAA1, 60 g ae/ha), 22.5%; in data set [2] (22DAA1, 60 g ae/ha), 28.8%. Also, the “Mean % Visual Injury” value in data set [2] (28DAA1, 60 g ae/ha) worked out at 38.8%. Moreover, the “Mean % Visual Injury Early (14-17) DAT” value is 1.9% in data set [4] (setting [5]) and 5% in data set [4] (setting [6]). The “Mean % Visual Injury Initial (8-10 DAT)” value in data set [4] (setting [5]) worked out at 2.8%; in data set [4] (setting [6]), 5%. Further, the “Mean % Visual Injury Late (42-55 DAT)” value in data set [4] (setting [5]) amounted to 1.5%; in data set [4] (setting [6]) it was 0.6%. Moreover, the “Mean % Visual Injury Mid (28-32 DAT)” value in data set [4] (setting [5]) stood at 2.3%; in data set [4] (setting [6]) it was 5.6%. Besides, the “Mean % Visual Growth Inhibition” value was 28.8% and 28.9% in data set [2] (13DAA1, 60 g ae/ha); 45.0% in data set [2] (28DAA1, 60 g ae/ha); 8.8% in data set [2] (56DAA1, 60 g ae/ha).

As to `CNC.O=C(O)CNCP(=O)(O)O` [Glyphosate-DMA], in data set [4] (setting [7]), the “Mean % Visual Injury Early (14-17) DAT” value was found to be 0.4%, the “Mean % Visual Injury Initial (8-10 DAT)” value is on record as 1%, the “Mean % Visual Injury Late (42-55 DAT)” value is reported as 0.2% and the “Mean % Visual Injury Mid (28-32 DAT)” value is reported as 1.5%.
